Reference: the supplement of paper PMC10307832

Key:
BAM7 + Trametinib = compound: CCOC1=CC=CC=C1N=NC2=C(NN(C2=O)C3=NC(=CS3)C4=CC=CC=C4)C [BAM7] + CC(=O)Nc1cccc(-n2c(=O)n(C3CC3)c(=O)c3c(Nc4ccc(I)cc4F)n(C)c(=O)c(C)c32)c1 [Trametinib] (partner 0.02 µM); experiment: relative viability (nuclei count vs DMSO), 5 days (fraction); higher = more cells survive
Summary of the method: (§1)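 Medians of duplicate plates are given as relative viability. That measure is the nuclei count in treated wells divided by the count in vehicle wells. Counts were taken on 4× images of lung cancer cell lines in 1536-well plates, 5 days after pin-tool dosing the day after seeding with one drug alone or a fixed anchor-drug dose plus five library-drug doses (not always all listed) in √10 steps.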

[1] = compound: CCn1c(-c2nonc2N)nc2c(C#CC(C)(C)O)ncc(OC[C@H]3CCCNC3)c21 + Cc1nc(Nc2ncc(C(=O)Nc3c(C)cccc3Cl)s2)cc(N2CCN(CCO)CC2)n1 [Dasatinib] (partner 0.075 µM); experiment: as above
Summary of the method: as §1

Cell Line | relative viability (BAM7 + Trametinib; first compound 0.5 µM) | relative viability (BAM7 + Trametinib; first compound 5 µM) | relative viability (BAM7 + Trametinib; first compound 15.81 µM) | relative viability (BAM7 + Trametinib; first compound 50 µM) | relative viability ([1]; first compound 0.01 µM) | relative viability ([1]; first compound 0.03162 µM) | relative viability ([1]; first compound 0.1 µM) | relative viability ([1]; first compound 0.3162 µM) | relative viability ([1]; first compound 1 µM)
HCC-44 | 1.07 | 1.11 | 0.983 | 1.12 | – | – | – | – | –
HCC-827 | 0.535 | 0.548 | 0.591 | 0.556 | 0.242 | 0.34 | 0.296 | 0.354 | 0.335
NCI-H1623 | – | – | – | – | 0.567 | 0.482 | 0.548 | 0.438 | 0.453
NCI-H2347 | 0.326 | 0.32 | 0.277 | 0.287 | 0.317 | 0.264 | – | 0.274 | 0.334
PC-14 | 0.829 | 0.745 | 0.542 | 0.697 | 0.243 | 0.292 | 0.28 | 0.237 | 0.301
NCI-H1651 | 0.859 | 0.842 | 0.835 | 0.862 | 0.43 | 0.402 | 0.412 | 0.396 | 0.454
HARA | 0.827 | 0.886 | 0.607 | 1.13 | 0.239 | 0.239 | 0.245 | 0.218 | 0.288
NCI-H1650 | 0.607 | 0.467 | 0.578 | 0.727 | 0.338 | 0.302 | 0.297 | 0.266 | 0.25
NCI-H1395 | 0.972 | 1.28 | 0.946 | 1.06 | 0.448 | 0.387 | 0.395 | 0.393 | 0.386
LU99A | 0.54 | 0.548 | 0.552 | 0.575 | 0.499 | 0.508 | 0.662 | 0.51 | 0.451
NCI-H1355 | 0.399 | 0.386 | 0.317 | 0.457 | 0.64 | 0.66 | 0.738 | 0.682 | 0.755
HCC-78 | 0.579 | 0.805 | 0.689 | 0.819 | 0.344 | 0.361 | 0.423 | 0.291 | 0.389
NCI-H1563 | – | – | – | – | 0.449 | 0.437 | 0.441 | 0.511 | 0.446
HCC-15 | 0.341 | 0.374 | 0.331 | 0.384 | 0.57 | 0.548 | 0.651 | 0.482 | 0.532
EKVX | 0.474 | 0.301 | 0.294 | 0.308 | 0.508 | 0.629 | 0.533 | 0.568 | 0.525
NCI-H2087 | 0.18 | 0.181 | 0.204 | 0.173 | 0.738 | 0.751 | 0.936 | 0.795 | 0.913
LK-2 | 0.737 | 0.945 | 0.811 | 0.841 | 0.252 | 0.275 | – | – | 0.406
NCI-H1437 | 0.415 | 0.396 | 0.394 | 0.414 | 0.381 | 0.359 | 0.391 | 0.385 | 0.354
COR-L23 | 0.519 | 0.58 | 0.614 | 0.657 | 0.521 | 0.445 | 0.505 | 0.467 | 0.534
ABC-1 | – | – | – | – | 0.531 | 0.455 | 0.612 | 0.448 | 0.559

Cell Line | relative viability (BAM7 + Trametinib; first compound 0.5 µM) | relative viability (BAM7 + Trametinib; first compound 5 µM) | relative viability (BAM7 + Trametinib; first compound 15.81 µM) | relative viability (BAM7 + Trametinib; first compound 50 µM) | relative viability ([1]; first compound 0.01 µM) | relative viability ([1]; first compound 0.03162 µM) | relative viability ([1]; first compound 0.1 µM) | relative viability ([1]; first compound 0.3162 µM) | relative viability ([1]; first compound 1 µM)
SW 900 | – | 0.72 | – | 0.888 | 0.731 | 0.527 | 0.566 | 0.544 | 0.538
NCI-H838 | 0.504 | 0.524 | 0.498 | 0.494 | 0.29 | 0.267 | 0.283 | 0.296 | 0.279
NCI-H1648 | 0.558 | 0.476 | 0.421 | 0.464 | – | – | – | – | –
A-427 | 0.765 | 0.809 | 0.752 | 0.911 | 0.624 | 0.716 | 0.729 | 0.729 | 0.793
NCI-H1792 | 0.46 | 0.462 | 0.401 | 0.362 | 0.758 | – | 0.818 | 0.705 | 0.897
LCLC-97TM1 | 0.202 | 0.199 | – | 0.224 | 0.799 | 0.982 | 0.803 | 0.739 | 0.845
LCLC-103H | 0.664 | 0.706 | 0.69 | 0.684 | 0.381 | 0.451 | 0.445 | 0.444 | 0.433
PC-3 [JPC-3] | 0.592 | 0.722 | 0.637 | 0.617 | 0.932 | 0.967 | 1.02 | 0.986 | 0.902
BEN | 1.04 | 1.1 | 0.851 | 1.05 | 0.308 | 0.289 | 0.304 | 0.337 | 0.398
NCI-H1666 | 0.895 | 0.879 | 0.887 | 0.837 | 0.847 | 0.99 | 0.833 | 0.819 | 0.771
LC-2-ad | 0.884 | 0.91 | 0.87 | 0.847 | 0.384 | 0.487 | 0.509 | 0.414 | 0.641
SK-LU-1 | 0.575 | 0.525 | 0.527 | 0.499 | 0.191 | 0.161 | 0.199 | 0.188 | 0.158
ChaGo-K-1 | 0.894 | 0.895 | 0.853 | 0.842 | 0.621 | 0.636 | 0.55 | 0.58 | 0.6
COR-L 105 | 0.404 | 0.525 | 0.466 | 0.272 | 0.365 | 0.326 | 0.357 | 0.353 | 0.287
NCI-H1975 | 0.329 | 0.366 | 0.332 | 0.415 | 0.355 | 0.462 | 0.412 | 0.376 | 0.306
NCI-H1993 | 0.456 | 0.524 | 0.479 | 0.506 | 0.759 | 0.531 | 0.603 | 0.473 | 0.527
RERF-LC-KJ | 0.767 | 0.708 | 0.526 | 0.642 | 0.708 | 0.815 | 0.748 | 0.678 | 0.565
NCI-H23 | 0.314 | 0.423 | 0.389 | 0.462 | 0.798 | 0.631 | 0.795 | 1.05 | 0.884
HCC-366 | 0.328 | 0.373 | 0.294 | 0.356 | 0.597 | 0.6 | 0.602 | 0.593 | 0.606
